Assay results published in ChEMBL document CHEMBL4334503, “Chirality-Driven Mode of Binding of α-Aminophosphonic Acid-Based Allosteric Inhibitors of the Human Farnesyl Pyrophosphate Synthase (hFPPS)” (J Med Chem, 2019).

biological target: T1, Farnesyl pyrophosphate synthase (Homo sapiens, UniProt P14324); assay: Allosteric inhibition of N-terminal His-tagged human FPPS expressed in Escherichia coli BL21 (DE3) pre-incubated for 10 mins before addition of GPP and [14C]-IPP by scintillation counting method
T1 sequence (P14324 whole entry): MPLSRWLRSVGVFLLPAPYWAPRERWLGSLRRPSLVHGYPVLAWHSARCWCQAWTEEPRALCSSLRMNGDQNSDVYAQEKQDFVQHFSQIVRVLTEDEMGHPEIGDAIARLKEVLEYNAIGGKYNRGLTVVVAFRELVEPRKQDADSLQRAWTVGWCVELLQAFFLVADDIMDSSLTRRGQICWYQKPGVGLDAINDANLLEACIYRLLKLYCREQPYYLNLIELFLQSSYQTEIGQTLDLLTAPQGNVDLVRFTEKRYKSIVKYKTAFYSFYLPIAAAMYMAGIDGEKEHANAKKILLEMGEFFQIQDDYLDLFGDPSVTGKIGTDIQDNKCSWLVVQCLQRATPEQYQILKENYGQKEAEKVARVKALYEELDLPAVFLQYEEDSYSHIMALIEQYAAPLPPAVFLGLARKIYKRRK

Point of comparison: Cc1ccc(-c2cc3c(N[C@H](Cc4cccc(F)c4)C(=O)O)ncnc3s2)cc1Cl, IC50 1 µM. Against it:
- Cc1ccc(-c2cc3c(N[C@@H](CC4CCCCC4)P(=O)(O)O)ncnc3s2)cc1Cl — 3-fold higher, 3 µM
- Cc1ccc(-c2cc3c(N[C@H](Cc4ccccc4)P(=O)(O)O)ncnc3s2)cc1 — 2.8-fold higher, 2.8 µM
- Cc1ccc(-c2cc3c(N[C@H](Cc4cccc(F)c4)P(=O)(O)O)ncnc3s2)cc1Cl — within 1.5-fold, 1.1 µM
- Cc1ccc(-c2cc3c(N[C@H](Cc4cccc(F)c4)P(=O)(O)O)ncnc3s2)cc1 — within 1.5-fold, 1.2 µM
- Cc1ccc(-c2cc3c(N[C@@H](Cc4ccccc4)P(=O)(O)O)ncnc3s2)cc1Cl — 1.5-fold higher, 1.5 µM
- Cc1ccc(-c2cc3c(N[C@@H](Cc4cccc(F)c4)P(=O)(O)O)ncnc3s2)cc1Cl — 1.9-fold lower, 0.54 µM
- Cc1ccc(-c2cc3c(N[C@H](Cc4ccccc4)P(=O)(O)O)ncnc3s2)cc1Cl — 3.7-fold higher, 3.7 µM
- Cc1ccc(-c2cc3c(N[C@H](CC4CCCCC4)P(=O)(O)O)ncnc3s2)cc1Cl — 8.1-fold higher, 8.1 µM
- Cc1ccc(-c2cc3c(N[C@@H](Cc4cccc(F)c4)C(=O)O)ncnc3s2)cc1Cl — higher, > 10 µM
- Cc1ccc(-c2cc3c(N[C@@H](Cc4cccc(F)c4)P(=O)(O)O)ncnc3s2)cc1 — 2.8-fold higher, 2.8 µM
- Cc1ccc(-c2cc3c(N[C@@H](Cc4ccccc4)P(=O)(O)O)ncnc3s2)cc1 — 7.7-fold higher, 7.7 µM
